This is an account of results in US20150352114A1, “MITOTIC KINESIN Eg5 INHIBITING ANTICANCER AGENTS” (THE CLEVELAND CLINIC FOUNDATION, priority 2014, published 2015).

Structures are written as SMILES.

For experiment [1], the system named is 3691 GBM cells. In words: Subcutaneous flank tumor study, 3691 GBM xenograft. In kind it is in vivo, mice. Here is the method:
All animal studies described were approved by the Cleveland Clinic Foundation Institutional Animal Care and Use Committee and conducted in accordance with the NIH Guide for the Care and Use of Laboratory Animals. For subcutaneous tumor studies, 1×10^5 freshly dissociated GBM cells from a xenograft originally derived from a primary GBM patient specimen (3691) were injected into the flanks of 10 six week old female athymic nu/nu mice. Tumors were allowed to reach approximately 0.12 cm^3, at which point animals were randomized into either vehicle control (DMSO) group or ispinesib (10 mg/kg given daily for 7 consecutive days by intraperitoneal injection) (Selleck Chemicals, Houston, Tex.). Tumors were monitored and measured daily using perpendicular diameter measurements for 7 days. Tumor volume was calculated using the ellipsoid formula π/6×larger diameter×(smaller diameter)^2. After the last treatment on Day 7, tumors were removed and weighed then processed for immunofluorescence (as described below). For intracranial implantation studies to evaluate tumor initiation by GSCs, the cells were isolated as described below and pre-exposed to drug or vehicle either in vitro or in vivo. For in vitro pre-exposure studies, GSCs from xenograft 3691 were seeded at single cell density and treated with vehicle or ispinesib (3 nM) for 18 hours (300,000 cells per condition). Drug was then washed off and 2,500 or 25,000 viable GSCs were implanted into the right frontal lobes of male NSG mice (n=10 for vehicle, n=7 for ispinesib). For in vivo pre-exposure studies, subcutaneous tumors were established as described above. When tumors reached ˜0.5 cm^3, mice were randomized into a vehicle (DMSO) or ispinesib (10 mg/kg given daily for 3 consecutive days) group. 4 hours after the final treatment, GSCs were isolated as described below and 1,000 or 10,000 viable GSCs were then intracranially implanted into NSG mice (10 mice per group). Mice were monitored daily for neurological impairment at which time they were sacrificed and brains removed to evaluate for tumor development. […]

The target of experiment [2] is T1, Eg5 (Homo sapiens, UniProt P52732).
T1 sequence (P52732 1-1056): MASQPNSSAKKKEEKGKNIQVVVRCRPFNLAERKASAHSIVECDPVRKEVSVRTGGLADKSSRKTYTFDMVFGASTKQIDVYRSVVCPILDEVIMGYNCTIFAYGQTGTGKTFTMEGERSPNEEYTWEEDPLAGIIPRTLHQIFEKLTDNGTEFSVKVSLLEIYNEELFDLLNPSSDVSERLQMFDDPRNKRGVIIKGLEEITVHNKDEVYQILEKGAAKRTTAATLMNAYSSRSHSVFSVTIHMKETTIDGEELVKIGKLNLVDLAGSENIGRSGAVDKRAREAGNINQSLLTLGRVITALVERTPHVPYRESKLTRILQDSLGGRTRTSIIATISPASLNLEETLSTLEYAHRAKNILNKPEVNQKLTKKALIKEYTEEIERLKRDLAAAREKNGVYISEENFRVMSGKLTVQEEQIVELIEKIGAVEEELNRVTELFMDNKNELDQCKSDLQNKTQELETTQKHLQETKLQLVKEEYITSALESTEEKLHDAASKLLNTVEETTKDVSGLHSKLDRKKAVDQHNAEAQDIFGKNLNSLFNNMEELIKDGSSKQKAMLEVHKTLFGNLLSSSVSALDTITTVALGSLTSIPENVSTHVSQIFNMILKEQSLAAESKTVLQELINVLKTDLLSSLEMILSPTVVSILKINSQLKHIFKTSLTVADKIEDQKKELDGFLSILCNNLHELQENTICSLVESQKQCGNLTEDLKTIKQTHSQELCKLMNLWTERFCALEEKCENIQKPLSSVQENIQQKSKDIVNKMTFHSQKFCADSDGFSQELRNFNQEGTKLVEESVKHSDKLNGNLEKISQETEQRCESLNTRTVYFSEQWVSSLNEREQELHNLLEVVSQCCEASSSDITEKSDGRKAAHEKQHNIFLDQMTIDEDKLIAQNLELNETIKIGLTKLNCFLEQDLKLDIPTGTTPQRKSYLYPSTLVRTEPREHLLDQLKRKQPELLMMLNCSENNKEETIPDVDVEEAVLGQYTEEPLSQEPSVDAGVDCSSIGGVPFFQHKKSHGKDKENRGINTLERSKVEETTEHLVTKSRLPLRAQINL
The conditions noted are these: cited from earlier work.

For `Cc1ccc(C(=O)N(CCCN)[C@@H](c2nc3cc(Cl)ccc3c(=O)n2Cc2ccccc2)C(C)C)cc1` [ispinesib, N-(3-amino-propyl)-n-[R-1-(3-benzyl-7-choloro-4-oxo-3,4-dihydroquinazolin-2-yl)-2-methyl-propyl]-4-methyl-benzamide methanesulfonate], the tumor volume result in experiment [1] (10 mg/kg daily intraperitoneal, 7 consecutive days) is “significantly reduced”. Moreover, in experiment [1] (10 mg/kg daily intraperitoneal, 7 consecutive days, day 7), the tumor weight entry is recorded as “significantly reduced”. Besides, the “Sox2 positive cells in end stage tumors” value in experiment [1] (10 mg/kg daily, 7 days) is given as “no Sox2 positive cells”. The “selectivity for Eg5 over other kinesins” value in experiment [2] was 40,000 times.
